Here are results for ten compounds from patent US6436929B1 (Wyeth, priority 1999, dated 2002).

“And” between values parts separate entries of the source, which are not always exact repeats. Equal entries are not always repeated.

Series [1] relates to rat uterine decidualization. Description: Rat decidualization assay. Particulars: s.c.; for Estimated average EC50: average over dose-response curves; for EC50: ovariectomized rats, uterine wet weight/decidual response, individual studies (Exp). The format is in vivo. The method, then:
The animals are treated once daily for seven days.
Uteri are removed and trimmed of fat.
Decidual response: [(D−C)/C]×100%

The target of series [2] is T1, human PR (Homo sapiens, UniProt P06401).
T1 construct: expressed in transfected cells; host or cells: CV-1 cells (electroporation with pLEM-hPR-B and pGL3-2xPRE-luciferase)
T1 sequence (P06401 1-933): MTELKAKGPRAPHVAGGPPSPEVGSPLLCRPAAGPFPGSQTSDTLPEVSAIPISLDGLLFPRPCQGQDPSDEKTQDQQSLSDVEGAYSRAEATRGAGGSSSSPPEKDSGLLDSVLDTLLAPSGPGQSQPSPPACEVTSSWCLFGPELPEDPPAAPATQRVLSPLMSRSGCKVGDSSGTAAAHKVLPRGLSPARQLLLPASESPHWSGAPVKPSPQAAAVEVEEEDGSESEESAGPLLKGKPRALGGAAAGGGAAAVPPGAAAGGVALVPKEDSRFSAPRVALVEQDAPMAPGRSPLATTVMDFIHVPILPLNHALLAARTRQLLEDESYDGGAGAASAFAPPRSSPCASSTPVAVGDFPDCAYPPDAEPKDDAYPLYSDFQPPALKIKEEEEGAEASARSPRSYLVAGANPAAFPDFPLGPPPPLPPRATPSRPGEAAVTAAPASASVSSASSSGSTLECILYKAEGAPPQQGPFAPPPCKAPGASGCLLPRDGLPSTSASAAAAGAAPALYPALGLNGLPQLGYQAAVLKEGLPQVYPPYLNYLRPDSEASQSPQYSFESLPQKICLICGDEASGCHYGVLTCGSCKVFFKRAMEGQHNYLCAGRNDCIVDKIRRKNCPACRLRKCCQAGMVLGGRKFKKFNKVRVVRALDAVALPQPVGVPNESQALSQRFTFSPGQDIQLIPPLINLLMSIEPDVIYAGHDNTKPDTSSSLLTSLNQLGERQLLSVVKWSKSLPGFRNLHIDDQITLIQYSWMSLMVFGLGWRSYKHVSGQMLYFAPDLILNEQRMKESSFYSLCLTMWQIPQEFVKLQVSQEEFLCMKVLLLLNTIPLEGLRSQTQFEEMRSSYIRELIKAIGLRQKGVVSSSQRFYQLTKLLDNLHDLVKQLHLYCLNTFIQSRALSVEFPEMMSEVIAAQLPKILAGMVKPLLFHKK
Description: PRE-luciferase assay in CV-1 cells co-transfected with human PR and PRE-luciferase plasmids. Format: cell-based. Particulars: agonist mode, PRE-luciferase in CV-1 cells, Table 1; read-out: hPR CV-1 EC50. As to the method: The object of this assay is to determine a compound's progestational or antiprogestational potency based on its effect on PRE-luciferase reporter activity in CV-1 cells co-transfected with human PR and PRE-luciferase plasmids. The materials methods used in the assay are as follows.
Electroporation is carried out at 260 V and […] in a Biorad Gene Pulser II. After electroporation, cells are resuspended in growth medium and plated in 96-well plate at 40,000 cells/well in 200 μl. Following overnight incubation, the medium is changed to experimental medium Cells are then treated with reference or test compounds in experimental medium. […] Twenty-four hr. after treatment, the medium is discarded, cells are washed three times with D-PBS (GIBCO, BRL). Fifty μl of cell lysis buffer (Promega, Madison, Wis.) is added to each well and the plates are shaken for 15 min in a Titer Plate Shaker (Lab Line Instrument, Inc.).
Each treatment consists of at least 4 replicates. Log transformed data are used for analysis of variance and nonlinear dose response curve fitting for both agonist and antagonist modes. Huber weighting is used to downweight the effects of outliers. EC50 or IC50 values are calculated from the retransformed values.

Series [3] deals with Ovulation. Description: Ovulation inhibition. The format is in vivo. Particulars: Table 1.
Series [4] relates to T47D cells. Description: T47D cell proliferation assay (BrdU incorporation). Particulars: half-maximal increase in BrdU incorporation, individual studies (Exp). The format is cell-based. The method, then:
The objective of this assay is the determination of progestational and antiprogestational potency by using a cell proliferation assay in T47D cells. A compound's effect on DNA synthesis in T47D cells is measured.
DMEM:F12(1:1) (GIBCO, BRL) supplemented with 10% (v/v) fetal bovine serum (not heat-inactivated), 100 U/ml penicillin, […], and 2 mM GlutaMax (GIBCO, BRL).
Minimum Essential Medium (MEM) (#51200-038GIBCO, BRL) phenol red-free supplemented with 0.5% charcoal stripped fetal bovine serum, 100 U/ml penicillin, […] streptomycin, and 2 mM GlutaMax (GIBCO, BRL). […]
At the end of BrdU labeling, the medium is removed and BrdU incorporation is measured using a cell proliferation ELISA kit (#RPN 250, Amersham Life Science) according to manufacturer's instructions. […] Then 25 μl of 1 M sulfuric acid is added to each well to stop color reaction and optical density is read in a plate reader at 450 nm within 5 min.
Square root-transformed data are used for analysis of variance and nonlinear dose response curve fitting for both agonist and antagonist modes. […] EC50 or IC50 values are calculated from the retransformed values. […]
In general terms: Uptake of a labelled nucleoside into DNA is a usual measure of proliferation.

Consider `C#C[C@]1(O)CC[C@H]2[C@@H]3CCC4=CC(=O)CC[C@@H]4[C@H]3C(=C)C[C@@]21CC` [3-Ketodesogestrel], for which, in series [1], the “Estimated average EC50” value is on record as 0.10 mg/kg; the EC50 was 0.10 mg/kg and 0.06 mg/kg and 0.11 mg/kg. `CC1(C)OC(=S)Nc2ccc(-c3cccc(Cl)c3)cc21` [Compound 1, 6-(3-Chlorophenyl)-4,4-dimethyl-1,4-dihydro-benzo[d][1,3]oxazin-2-thione] returned a melting point of 183 to 184 °C. The EC50 in series [2] worked out at 0.65 nM. The compound `CC1(C)OC(=S)Nc2ccc(-c3csc(C#N)c3)cc21` [Compound 2, 4-(4,4-Dimethyl-2-thioxo-1,4-dihydro-2H-benzo[d][1,3]oxazin-6-yl)-thiophene-2-carbonitrile] yielded a melting point of 242 to 243 °C. Moreover, the EC50 in series [2] was 0.3 nM. The “Ovulation Inhibition ED100” value in series [3] worked out at 1 mg/kg. For `CC1(C)OC(=S)Nc2ccc(-c3cc(F)cc(C#N)c3)cc21` [Compound 3, 3-(4,4-Dimethyl-2-thioxo-1,4-dihydro-2H-benzo[d][1,3]oxazin-6-yl)-5-fluorobenzonitrile], the EC50 in series [2] turned out to be 5.1 nM. On to `CCCCc1cc(C#N)sc1-c1ccc2c(c1)C(C)(C)OC(=S)N2` [Example 64, 4-Butyl-5-(4,4-dimethyl-2-thioxo-1,4-dihydro-2H-3,1-benzoxazin-6-yl)thiophene-2-carbonitrile], for which the melting point lay in the range of 174 to 175 °C. Still for that read-out and setting: the same measure for `CC1(C)OC(=S)Nc2ccc(-c3cccc(Br)c3)cc21` [Example 65, 6-(3-Bromophenyl)-4,4-dimethyl-1,4-dihydro-2H-3,1-benzoxazine-2-thione]: 191 to 193 °C; for `CC1(C)OC(=S)Nc2ccc(-c3sccc3C#N)cc21` [Example 66, 2-(4,4-Dimethyl-2-thioxo-1,4-dihydro-2H-3,1-benzoxazin-6-yl)thiophene-3-carbonitrile]: 194 to 195 °C. `C#C[C@]1(O)CC[C@H]2[C@@H]3CCC4=CC(=O)CC[C@@H]4[C@H]3CC[C@@]21CC` [Levonorgestrel]: in series [1], the “Estimated average EC50” value was 0.10 mg/kg; the EC50 was 0.08 mg/kg and 0.12 mg/kg and 0.09 mg/kg (2×).

As for `CC(=O)O[C@]1(C(C)=O)CC[C@H]2[C@@H]3C[C@H](C)C4=CC(=O)CC[C@]4(C)[C@H]3CC[C@@]21C` [MPA, medroxyprogesterone acetate], in series [4] (Homo sapiens, T47D), the EC50 turned out to be 0.019 nM. For `C[C@H](O)C(=O)[C@@]1(C)CC[C@H]2[C@@H]3CCC4=CC(=O)CCC4=C3CC[C@@]21C` [Trimegestone], the EC50 in series [4] was 0.017 nM and 0.014 nM and 0.019 nM.

By melting point is commonly meant the temperature, or range, at which the solid turns liquid.
